# Results published in patent US8946215B2, “Hydroxy-substituted imidazo[1,2-a]pyridinecarboxamides and their use” (Bayer Pharma Aktiengesellschaft, priority 2012, dated 2015).
# Where a name gives a salt, the structure may show the parent alone.
# Molecular target: T1, recombinant guanylate cyclase reporter cell line (Rattus norvegicus, UniProt P19686+P20595)
# T1 construct: expressed in transfected cells
# T1 sequence (P20595 1-619): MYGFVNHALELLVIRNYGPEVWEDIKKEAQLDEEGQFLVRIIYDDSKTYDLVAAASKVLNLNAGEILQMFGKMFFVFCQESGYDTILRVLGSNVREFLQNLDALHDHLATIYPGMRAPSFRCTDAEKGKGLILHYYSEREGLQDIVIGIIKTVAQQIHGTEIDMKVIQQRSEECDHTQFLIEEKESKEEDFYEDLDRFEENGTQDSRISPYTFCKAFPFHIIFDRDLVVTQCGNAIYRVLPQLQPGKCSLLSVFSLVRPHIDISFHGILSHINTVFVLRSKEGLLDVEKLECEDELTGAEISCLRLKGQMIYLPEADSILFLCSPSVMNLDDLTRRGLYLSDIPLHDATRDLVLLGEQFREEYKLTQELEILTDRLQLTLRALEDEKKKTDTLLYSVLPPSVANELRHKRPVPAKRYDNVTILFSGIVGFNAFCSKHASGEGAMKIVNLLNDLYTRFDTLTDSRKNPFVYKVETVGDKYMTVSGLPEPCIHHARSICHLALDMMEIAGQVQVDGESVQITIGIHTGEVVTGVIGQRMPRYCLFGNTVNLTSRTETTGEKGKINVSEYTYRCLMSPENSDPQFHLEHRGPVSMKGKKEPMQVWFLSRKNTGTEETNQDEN
# T1 sequence (P19686 1-690): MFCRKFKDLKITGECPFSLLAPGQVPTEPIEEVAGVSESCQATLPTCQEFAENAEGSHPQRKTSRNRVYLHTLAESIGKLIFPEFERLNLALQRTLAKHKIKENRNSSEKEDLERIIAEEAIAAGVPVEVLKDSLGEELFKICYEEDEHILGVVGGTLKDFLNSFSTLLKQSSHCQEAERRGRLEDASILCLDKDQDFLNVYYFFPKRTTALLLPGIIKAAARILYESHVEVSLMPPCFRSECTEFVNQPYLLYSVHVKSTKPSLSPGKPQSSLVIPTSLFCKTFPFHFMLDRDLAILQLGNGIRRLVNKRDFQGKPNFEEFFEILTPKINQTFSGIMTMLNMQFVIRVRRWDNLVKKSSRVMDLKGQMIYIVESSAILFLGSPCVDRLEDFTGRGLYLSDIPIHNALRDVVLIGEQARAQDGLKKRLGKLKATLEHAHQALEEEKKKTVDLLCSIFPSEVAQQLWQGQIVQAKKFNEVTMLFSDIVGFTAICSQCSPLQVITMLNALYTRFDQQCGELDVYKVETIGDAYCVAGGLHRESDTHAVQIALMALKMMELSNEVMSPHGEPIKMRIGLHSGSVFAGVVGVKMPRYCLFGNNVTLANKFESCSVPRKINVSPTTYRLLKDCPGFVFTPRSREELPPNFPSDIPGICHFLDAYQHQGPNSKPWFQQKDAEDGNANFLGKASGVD
# Test: Action on recombinant guanylate cyclase reporter cell line
# Format: cell-based
# Settings: in some cases mean values obtained from individual determinations
# Description: B-2. Action on Recombinant Guanylate Cyclase Reporter Cell Line
# The cellular action of the compounds according to the invention is determined on a recombinant guanylate cyclase reporter cell line, as described in F. Wunder et al., Anal. Biochem. 339, 104-112 (2005).
# Representative values (MEC=minimal effective concentration) for the compounds according to the invention are shown in the following table (in some cases as mean values obtained from individual determinations): […]
row,MEC (minimal effective concentration) [µM],Compound
1,10,"Cc1cc(OCc2ncccc2F)c2nc(C)c(C(=O)NC(CCC(O)C(F)(F)F)C(C)(C)O)n2c1 (mixture of isomers) [Example 195, 8-[(3-fluoropyridin-2-yl)methoxy]-2,6-dimethyl-N-(7,7,7-trifluoro-2,6-dihydroxy-2-methylheptan-3-yl)imidazo[1,2-a]pyridine-3-carboxamide (stereoisomer mixture)]"
2,1.0,"Cc1nc2c(OCc3c(F)cccc3F)cccn2c1C(=O)NC1CCC(O)CC1 (racemic) [Example 42, (rac)-8-[(2,6-difluorobenzyl)oxy]-N-(trans-4-hydroxycyclohexyl)-2-methylimidazo[1,2-a]-pyridine-3-carboxamide]"
3,0.1,"CCC(CO)NC(=O)c1c(C)nc2c(OCC3CCCCC3)cccn12 (racemic) [Example 69, (rac)-8-(cyclohexylmethoxy)-N-(1-hydroxybutan-2-yl)-2-methylimidazo)[1,2-a]pyridine-3-carboxamide formate]"
4,0.1,"C=CCC(CO)NC(=O)c1c(C)nc2c(OCC3CCCCC3)cccn12 (racemic) [Example 70, (rac)-8-(cyclohexylmethoxy)-N-(1-hydroxypent-4-en-2-yl)-2-methylimidazo[1,2-a]pyridine-3-carboxamide]"
5,0.1,"Cc1nc2c(OCC3CCCCC3)cccn2c1C(=O)N[C@H]1CCC[C@@H]1O (racemic) [Example 71, (rac)-8-(cyclohexylmethoxy)-N-[trans-2-hydroxycyclopentyl]-2-methylimidazo[1,2-a]-pyridine-3-carboxamide]"
6,0.3,"Cc1nc2c(OCC3CCCCC3)cccn2c1C(=O)N[C@@H]1CCCC[C@H]1O (racemic) [Example 78, (rac)-8-(cyclohexylmethoxy)-N-[(trans)-2-hydroxycyclohexyl]-2-methylimidazo[1,2-a]-pyridine-3-carboxamide]"
7,0.03,"Cc1nc2c(OCc3c(F)cccc3F)cccn2c1C(=O)NC(CO)CC(F)(F)F (racemic) [Example 100, rac-8-[(2,6-Difluorobenzyl)oxy]-2-methyl-N-(4,4,4-trifluoro-hydroxybutan-2-yl)imidazo[1,2-a]-pyridine-3-carboxamide trifluoroacetate]"
8,0.1,"Cc1nc2c(OCc3c(F)cccc3F)cccn2c1C(=O)NC(CO)CCC(F)(F)F (racemic) [Example 101, rac-8-[(2,6-difluorobenzyl)oxy]-2-methyl-N-(5,5,5-trifluoro-1-hydroxypentan-2-yl)-imidazo[1,2-a]pyridine-3-carboxamide trifluoroacetate]"
9,0.1,"Cc1nc2c(OCc3c(F)cccc3F)cccn2c1C(=O)NC(CO)c1ccc(F)cc1 (racemic) [Example 103, rac-8-[(2,6-difluorobenzyl)oxy]-N-[1-(4-fluorophenyl)-2-hydroxyethyl]-2-methylimidazo[1,2-a]pyridine-3-carboxamide trifluoroacetate]"
10,0.3,"Cc1nc2c(OCc3c(F)cccc3F)cccn2c1C(=O)NCC(O)C(F)(F)F (racemic) [Example 106, rac-8-[(2,6-difluorobenzyl)oxy]-2-methyl-N-(3,3,3-trifluoro-2-hydroxypropyl)imidazo[1,2-a]pyridine-3-carboxamide trifluoroacetate]"
11,0.3,"Cc1nc2c(OCc3c(F)cccc3F)cccn2c1C(=O)NC(CO)C(F)(F)F (racemic) [Example 110, rac-8-[(2,6-Difluorobenzyl)oxy]-2-methyl-N-(1,1,1-trifluoro-3-hydroxypropan-2-yl)imidazo[1,2-a]pyridine-3-carboxamide]"
12,0.03,"Cc1nc2c(OCc3c(F)cccc3F)cccn2c1C(=O)NC(CO)CC(F)(F)F (racemic) [Example 113, rac-8-[(2,6-Difluorobenzyl)oxy]-2-methyl-N-(4,4,4-trifluoro-1-hydroxybutan-2-yl)imidazo[1,2-a]-pyridine-3-carboxamide]"
13,0.03,"Cc1nc2c(OCc3c(F)cccc3F)cccn2c1C(=O)NC(CO)CCCC(F)(F)F (racemic) [Example 114, rac-8-[(2,6-difluorobenzyl)oxy]-2-methyl-N-(6,6,6-trifluoro-1-hydroxyhexan-2-yl)imidazo[1,2-a]pyridine-3-carboxamide]"
14,0.3,"Cc1nc2c(OCc3c(F)cccc3F)cccn2c1C(=O)NC(CO)c1ccccn1 (racemic) [Example 119, rac-8-[(2,6-difluorobenzyl)oxy]-N-[2-hydroxy-1-(pyridin-2-yl)ethyl]-2-methylimidazo[1,2-a]-pyridine-3-carboxamide]"
15,1.0,"Cc1nc2c(OCc3c(F)cccc3F)cccn2c1C(=O)NC(CO)c1ccc(S(C)(=O)=O)cc1 (racemic) [Example 120, rac-8-[(2,6-difluorobenzyl)oxy]-N-{2-hydroxy-1-[4-(methylsulphonyl)phenyl]ethyl}-2-methylimidazo[1,2-a]pyridine-3-carboxamide]"
16,0.3,"Cc1nc2c(OCc3c(F)cccc3F)cccn2c1C(=O)NC(CO)c1cccnc1 (racemic) [Example 124, rac-8-[(2,6-Difluorobenzyl)oxy]-N-[2-hydroxy-1-(pyridin-3-yl)ethyl]-2-methylimidazo[1,2-a]-pyridine-3-carboxamide]"
17,0.1,"Cc1nc2c(OCc3c(F)cccc3F)cccn2c1C(=O)NC(CCC(F)(F)F)C(C)(C)O (racemic) [Example 149, rac-8-[(2,6-difluorobenzyl)oxy]-2-methyl-N-(6,6,6-trifluoro-2-hydroxy-2-methylhexan-3-yl)imidazo[1,2-a]pyridine-3-carboxamide]"
18,0.03,"Cc1nc2c(OCc3c(F)cccc3F)cccn2c1C(=O)NC(CCCC(F)(F)F)C(C)(C)O (racemic) [Example 150, rac-8-[(2,6-difluorobenzyl)oxy]-2-methyl-N-(7,7,7-trifluoro-2-hydroxy-2-methylheptan-3-yl)imidazo[1,2-a]pyridine-3-carboxamide]"
19,0.3,"Cc1nc2c(OCc3c(F)cccc3F)cccn2c1C(=O)NC(c1ccc(Cl)cc1)C(C)(C)O (racemic) [Example 151, rac-N-[1-(4-chlorophenyl)-2-hydroxy-2-methylpropyl]-8-[(2,6-difluorobenzyl)oxy]-2-methylimidazo[1,2-a]pyridine-3-carboxamide]"
20,0.3,"Cc1nc2c(OCc3c(F)cccc3F)cccn2c1C(=O)NC(c1ccc(F)cc1)C(C)(C)O (racemic) [Example 152, rac-8-[(2,6-difluorobenzyl)oxy]-N-[1-(4-fluorophenyl)-2-hydroxy-2-methylpropyl]-2-methylimidazo[1,2-a]pyridine-3-carboxamide]"
21,0.3,"CCOCC(CO)NC(=O)c1c(C)nc2c(OCc3c(F)cccc3F)cccn12 (racemic) [Example 160, rac-8-[(2,6-Difluorobenzyl)oxy]-N-(1-ethoxy-3-hydroxypropan-2-yl)-2-methylimidazo[1,2-a]-pyridine-3-carboxamide]"
22,0.3,"CCCOCC(CO)NC(=O)c1c(C)nc2c(OCc3c(F)cccc3F)cccn12 (racemic) [Example 162, rac-8-[(2,6-Difluorobenzyl)oxy]-N-(1-hydroxy-3-propoxypropan-2-yl)-2-methylimidazo[1,2-a]-pyridine-3-carboxamide]"

# Same assay, conditions: in some cases mean values obtained from individual determinations, trifluoroacetate
row,MEC (minimal effective concentration) [µM],Compound
1,0.1,"Cc1nc2c(OCc3c(F)cccc3F)cccn2c1C(=O)NC(CO)CCCC(F)(F)F (racemic) [Example 102, rac-8-[(2,6-difluorobenzyl)oxy]-2-methyl-N-(6,6,6-trifluoro-1-hydroxyhexan-2-yl)-imidazo[1,2-a]pyridine-3-carboxamide trifluoroacetate]"
